In patent US20230391772A1, “METHODS AND COMPOSITIONS FOR TARGETED PROTEIN DEGRADATION” (Ranok Therapeutics (Hangzhou) Co. Ltd., priority 2020, published 2023):

What was measured:
HSP90a protein [1] = target: T1, HSP90a protein (Homo sapiens, UniProt P07900); experiment: HSP90α-binding fluorescent polarization (FP) assay, FITC-geldanamycin probe; settings: FP competition with FITC-geldanamycin, 5 nM, 120 min at 25° C.
T1 construct: purchased BPS Bioscience 50298
Description: HSP90α-Binding Fluorescent Polarization (FP) Assay
Binding of test compounds to HSP90a protein was measured by fluorescent polarization (FP) using the HSP90a (N-terminal) Assay Kit (BPS Bioscience, #50298), following the manufacturer's instructions, except as noted. Fluorescently labeled HSP90-binding compounds, either the provided FITC-geldanamycin (5 nM final concentration) or RNK04010, a triazolone-based HSP90 binding small molecule labeled with BODIPY through a piperizine-phenyl linker (5 nM final concentration) were employed. A 2.5-fold serial dilution of each test compound ranging from 20 μM to 5.2 nM was assayed for binding to HSP90a. After the final step of adding HSP90a protein to each assay well, plates were mixed by brief shaking, incubated at 25° C. for 120 min for FITC-geldanamycin or 300 min for RNK04010, and fluorescence was measured using a PerkinElmer EnVision Plate Reader.

[2] = tested on: MIA PaCa-2 human pancreatic carcinoma; experiment: MIA PaCa-2 CCK-8 proliferation assay; format: cell-based; settings: Homo sapiens, MIA PaCa-2, 72 h, MIA PaCa-2 cells
In short: (§1)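 Proliferation of mutant-KRAS(G12C) cells (2 copies in MIA PaCa-2, single copy in NCI-H358/NCI-H23) measured with CCK-8 after treatment across 20 μM–1.02 nM; inhibition expressed relative to vehicle-treated wells after subtracting no-cell background.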

HSP90a protein [3] = target: T1, HSP90a protein; experiment: HSP90α-binding fluorescent polarization (FP) assay, BODIPY-labeled RNK04010 probe; settings: FP competition with RNK04010 (BODIPY-labeled), 5 nM, 300 min at 25° C.
In short: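 Polarization signal was read after equilibration at 25° C, for 120 min with FITC-geldanamycin or 300 min with the BODIPY-tagged RNK04010 probe, each at 5 nM final. Compounds spanned 20 μM down to 5.2 nM in 2.5-fold dilutions against the HSP90a N-terminal domain.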

[4] = tested on: NCI-H23 human non-small cell lung cancer; experiment: NCI-H23 CCK-8 proliferation assay; format: cell-based; settings: NCI-H23 cells, 72 hr
In short: as §1

[5] = tested on: NCI-H358 human non-small cell lung cancer; experiment: NCI-H358 CCK-8 proliferation assay; format: cell-based; settings: NCI-H358 cells, 72 hr
In short: as §1

KRAS(G12C) [6] = target: T2, KRAS(G12C) (Homo sapiens, UniProt P01116, G12C); experiment: KRAS(G12C)/SOS1 homogeneous time-resolved fluorescence (HTRF) assay; set-up: purchased Cisbio 63ADK000CB16PEG; settings: absence of GTP, 4° C. for 3 hr, read-out: KRAS (G12C) binding
In short: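 HTRF kit measuring compound-induced block of KRAS(G12C)-SOS1 interaction without GTP. Compounds tested as 3-fold serial dilutions down to 1.02 nM, incubated with reaction components 3 h at 4 °C in sealed plates before fluorescence read.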

KRAS(G12C) [7] = target: T2, KRAS(G12C); experiment: KRAS(G12C) Western blot protein degradation assay in MIA PaCa-2 cells; format: cell-based; set-up: host or cells: LU65A; settings: 48 hr
Description: The following cancer cell lines were employed: BT-474 human breast carcinoma (ATCC, #HTB-20); MIA PaCa-2 human pancreatic carcinoma [2 copies KRAS(G12C)](ATCC, #CRL-1420); NCI-H23 human non-small cell lung cancer [1 copy KRAS(G12C)](ATCC, #CRL-5800); NCI-H358 human non-small cell lung cancer [1 copy KRAS(G12C)](ATCC, #CRL-5807); LU65A human lung carcinoma (Pharmaron, Beijing, China). Cell lines were cultured essentially according to ATCC and Pharmaron recommendations.
KRAS(G12C) Western Blot Protein Degradation Assay
The MIA PaCa-2 human pancreatic carcinoma cell line and LU65A human lung cancer cell line, which expresses KRAS(G12C), were seeded in 6- or 12-well tissue culture plates, and after 1 hr, test compounds were added at various concentrations and incubated at 37° C./5% CO2 for 48 hr (MIA Paca-2) and 6 hr (LU65A) respectively. Cells were then washed with cold PBS, aspirated and cold RIPA buffer containing a protease/phosphatase inhibitor cocktail was added to lyse cells. After centrifugation, the total protein concentrations of cell lysates were determined using the BCA protein assay. Samples were normalized for equivalent protein concentrations, 5×SDS-PAGE loading buffer added and denatured at 100° C. for 10 min. 20 μl of each sample/well was loaded on a SDS-PAGE gel and electrophoresed for 20 min at 80 V, then 120 V for 1.5 hr. Gels were then electroblotted to nitrocellulose membranes using a wet-transfer method at 250 mA for 2.5 hr. Membranes were incubated with blocking buffer for 1 hr and washed 3 times with TBST for 5 min. Membranes were then incubated with anti-KRAS (Sigma-Aldrich, #SAB1404011) and anti-β-Actin monoclonal antibodies (Cell Signaling Technology, #3700) diluted in blocking buffer at 4° C. overnight per the manufacturer's recommendations. After washing 3 times, blots were incubated with appropriately labeled secondary antibodies for 1 hr at room temperature and washed again. Fluorescence imaging and quantitation was performed using a LI-COR Odyssey. Results was analyzed using GraphPad Prism 7 software. Compound degradation of was determined by the following equation and DC50 values (the concentration at which 50% of the maximal degradation of KRAS occurs) calculated using GraphPad Prism 7 software:
% Inhibition=100−(D−B)/(S−B)*100%. • S: Fluorescence intensity of cells with antibody • D: Fluorescence intensity of compound-treated cells with antibody • B: Fluorescence intensity of cells without antibody

T2 sequence (P01116 1-188 isoform P01116-2 G12C): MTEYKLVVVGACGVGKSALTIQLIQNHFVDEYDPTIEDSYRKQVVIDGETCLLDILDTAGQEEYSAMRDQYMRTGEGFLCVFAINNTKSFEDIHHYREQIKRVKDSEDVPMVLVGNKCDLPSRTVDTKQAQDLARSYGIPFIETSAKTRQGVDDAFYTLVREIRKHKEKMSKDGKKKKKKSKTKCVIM

| IC50 (HSP90a protein [1]) [nM] | EC50 [2] [nM] | IC50 (HSP90a protein [3]) [nM] | EC50 [4] [nM] | EC50 [5] [nM] | IC50 (KRAS(G12C) [6]) [nM] | inhibition at 0.1562 µM (KRAS(G12C) [7]; 156.2 nM) [%] | inhibition at 0.3125 µM (KRAS(G12C) [7]; 312.5 nM) [%] | inhibition at 0.625 µM (KRAS(G12C) [7]; 625 nM) [%] | inhibition at 1.25 µM (KRAS(G12C) [7]; 1250 nM) [%] | inhibition at 2.5 µM (KRAS(G12C) [7]; 2500 nM) [%] | inhibition at 5 µM (KRAS(G12C) [7]; 5000 nM) [%] | inhibition at 10 µM (KRAS(G12C) [7]; 10,000 nM) [%] | Structure (SMILES) |
| --- | --- | --- | --- | --- | --- | --- | --- | --- | --- | --- | --- | --- | --- |
| 100 to 1000 | < 100 |  |  |  |  |  |  |  |  |  |  |  | C=C(F)C(=O)N1CCN(c2nc(OC[C@@H]3CCN(C(=O)C4CCN(Cc5ccc(-n6c(C(N)=O)nnc6-c6cc(C(C)C)c(O)cc6O)cc5)CC4)C3)nc3c2CCN(c2cccc4cccc(Cl)c24)C3)C[C@@H]1CC#N [Compound 166, 4-(4-((4-((R)-3-(((7-(8-chloronaphthalen-1-yl)-4-((S)-3-(cyanomethyl)-4-(2-fluoroacryloyl)piperazin-1-yl)-5,6,7,8-tetrahydropyrido[3,4-d]pyrimidin-2-yl)oxy)methyl)pyrrolidine-1-carbonyl)piperidin-1-yl)methyl)phenyl)-5-(2,4-dihydroxy-5-isopropylphenyl)-4H-1,2,4-triazole-3-carboxamide] |
| < 100 | 100 to 1000 |  |  |  |  |  |  |  |  |  |  |  | CC(C)c1cc(-c2nnc(O)n2-c2ccc(CN3CCC(C(=O)N4CC[C@@H](COc5nc6c(c(N7CCN(C(N)=O)[C@@H](CC#N)C7)n5)CCN(c5cccc7cccc(Cl)c57)C6)C4)CC3)cc2)c(O)cc1O [Compound 169, (S)-4-(7-(8-chloronaphthalen-1-yl)-2-(((R)-1-(1-(4-(3-(2,4-dihydroxy-5-isopropylphenyl)-5-hydroxy-4H-1,2,4-triazol-4-yl)benzyl)piperidine-4-carbonyl)pyrrolidin-3-yl)methoxy)-5,6,7,8-tetrahydropyrido[3,4-d]pyrimidin-4-yl)-2-(cyanomethyl)piperazine-1-carboxamide] |
| < 100 | 100 to 1000 |  |  |  |  |  |  |  |  |  |  |  | C=C(F)C(=O)N1CCN(c2nc(OC[C@@H]3CCN(C(=O)C4CCN(Cc5ccc(-n6c(O)nnc6-c6cc(CC)c(O)cc6O)cc5)CC4)C3)nc3c2CCN(c2cccc4cccc(Cl)c24)C3)C[C@@H]1CC#N [Compound 167, 2-((S)-4-(7-(8-chloronaphthalen-1-yl)-2-(((R)-1-(1-(4-(3-(5-ethyl-2,4-dihydroxyphenyl)-5-hydroxy-4H-1,2,4-triazol-4-yl)benzyl)piperidine-4-carbonyl)pyrrolidin-3-yl)methoxy)-5,6,7,8-tetrahydropyrido[3,4-d]pyrimidin-4-yl)-1-(2-fluoroacryloyl)piperazin-2-yl)acetonitrile] |
|  | < 100 | 100 to 1000 | 100 to 1000 | 100 to 1000 | > 1000 |  |  |  |  |  |  |  | CC(=O)N1CCN(c2nc(NCCC(=O)NCc3ccc(CN4CCC(Cc5ccc(-n6c(C(=O)NCC(F)(F)F)nnc6-c6cc(C(C)C)c(O)cc6O)cc5)CC4)cc3)nc3c2CCN(c2cc(O)cc4ccccc24)C3)CC1 [Compound 54, 4-(4-((1-(4-((3-((4-(4-acetylpiperazin-1-yl)-7-(3-hydroxynaphthalen-1-yl)-5,6,7,8-tetrahydropyrido[3,4-d]pyrimidin-2-yl)amino)propanamido)methyl)benzyl)piperidin-4-yl)methyl)phenyl)-5-(2,4-dihydroxy-5-isopropylphenyl)-N-(2,2,2-trifluoroethyl)-4H-1,2,4-triazole-3-carboxamide, trifluoroacetic acid] |
|  | 100 to 1000 | 100 to 1000 | > 1000 | 100 to 1000 | > 1000 |  |  |  |  |  |  |  | C=CC(=O)N1CCN(c2nc(NCCC(=O)NCCc3ccc(CN4CCC(Cc5ccc(-n6c(C(=O)NCC(F)(F)F)nnc6-c6cc(C(C)C)c(O)cc6O)cc5)CC4)cc3)nc3c2CCN(c2cc(O)cc4ccccc24)C3)CC1 [Compound 24, 4-(4-((1-(4-(2-(3-((4-(4-acryloylpiperazin-1-yl)-7-(3-hydroxynaphthalen-1-yl)-5,6,7,8-tetrahydropyrido[3,4-d]pyrimidin-2-yl)amino)propanamido)ethyl)benzyl)piperidin-4-yl)methyl)phenyl)-5-(2,4-dihydroxy-5-isopropylphenyl)-N-(2,2,2-trifluoroethyl)-4H-1,2,4-triazole-3-carboxamide, trifluoroacetic acid] |
|  | < 100 | > 1000 | 100 to 1000 | 100 to 1000 | > 1000 | < 33 | < 33 | < 33 | < 33 | < 33 | < 33 | < 33 | C=CC(=O)N1CCN(c2nc(NCCC(=O)N3CCC(Cc4ccc(CN(C)Cc5ccc(-n6c(C(=O)NCC(F)(F)F)nnc6-c6cc(C(C)C)c(O)cc6O)cc5)cc4)CC3)nc3c2CCN(c2cc(O)cc4ccccc24)C3)CC1 [Compound 16, 4-(4-(((4-((1-(3-((4-(4-acryloylpiperazin-1-yl)-7-(3-hydroxynaphthalen-1-yl)-5,6,7,8-tetrahydropyrido[3,4-d]pyrimidin-2-yl)amino)propanoyl)piperidin-4-yl)methyl)benzyl)(methyl)amino)methyl)phenyl)-5-(2,4-dihydroxy-5-isopropylphenyl)-N-(2,2,2-trifluoroethyl)-4H-1,2,4-triazole-3-carboxamide, trifluoroacetic acid] |
|  | > 1000 | < 100 | > 1000 | 100 to 1000 | > 1000 |  |  |  |  |  |  |  | C=CC(=O)N1CCN(c2nc(NCCC(=O)N3CCC(CN4CCN(Cc5ccc(-n6c(O)nnc6-c6cc(C(C)C)c(O)cc6O)cc5)CC4)CC3)nc3c2CCN(c2cc(O)cc4ccccc24)C3)CC1 [Compound 14, 1-(4-(2-((3-(4-((4-(4-(3-(2,4-dihydroxy-5-isopropylphenyl)-5-hydroxy-4H-1,2,4-triazol-4-yl)benzyl)piperazin-1-yl)methyl)piperidin-1-yl)-3-oxopropyl)amino)-7-(3-hydroxynaphthalen-1-yl)-5,6,7,8-tetrahydropyrido[3,4-d]pyrimidin-4-yl)piperazin-1-yl)prop-2-en-1-one, trifluoroacetic acid] |
|  |  | < 100 | 100 to 1000 | 100 to 1000 | > 1000 |  |  |  |  |  |  |  | CCc1cc(-c2nnc(C(=O)NC(C)C)n2-c2ccc(CN3CCN(CC4CCN(C(=O)CCNc5nc6c(c(N7CCN(C(C)=O)CC7)n5)CCN(c5cc(O)cc7ccccc57)C6)CC4)CC3)cc2)c(O)cc1O [Compound 55, 4-(4-((4-((1-(3-((4-(4-acetylpiperazin-1-yl)-7-(3-hydroxynaphthalen-1-yl)-5,6,7,8-tetrahydropyrido[3,4-d]pyrimidin-2-yl)amino)propanoyl)piperidin-4-yl)methyl)piperazin-1-yl)methyl)phenyl)-5-(5-ethyl-2,4-dihydroxyphenyl)-N-isopropyl-4H-1,2,4-triazole-3-carboxamide, trifluoroacetic acid] |
